Data published in patent US20200155731A1, “DEVICE AND METHOD FOR PROMOTING RAPID STRUT COVERAGE AND VASCULAR ENDOTHELIAL COVERAGE” (priority 2017, published 2020).

Tests used:
[1] = system: human EC; assay: EC proliferation in bottles containing human EC, vehicle nanoparticles (DSPE-PEG); assay type: cell-based; conditions: Experiment 5, control nanoparticles only, FIG. 7
Method: (§1) Experiment 5 was carried out by using nanoparticles of 1, 2 distearoyl-sn-glycero-3-phosphoethanolamine-Nmethxy (polyethyleneglycol)-2000 (DSPE-PEG) as a drug and gene silencer carrying vehicle instead of lentiviruses and plasmids which were used in the previous experiments. That being so, 8 groups were included for both assessment of nanoparticles as a vehicle and final confirmation of the previous results: control (nanoparticles only), MYH11-siRNA in nanoparticles, CNN1-siRNA in nanoparticles, sirolimus in nanoparticles, paclitaxel in nanoparticles, TNFRSF11B-siRNA in nanoparticles, NCF4-siRNA in nanoparticles, and MYL9-siRNA+GAPDH in nanoparticles.
(§2) The groups of sirolimus in nanoparticles and paclitaxel in nanoparticles were included to compare the efficacy in inhibiting VSMC proliferation. The groups of NFRSF11B-siRNA in nanoparticles and NCF4-siRNA in nanoparticles were tested again with a different vehicle for final confirmation of the negative results. The group of MYL9-siRNA+GAPDH in nanoparticles was studied to evaluate the vehicle efficacy, that is, to ensure that gene silencers would enter VSMC and EC using nanoparticles as a vehicle. […] MYL9-siRNA gene silencer was marked with GAPDH for later verification of its transfection into the cells through fluorescence microscopy. […]

[2] = system: human VSMC; assay: VSMC proliferation in bottles containing human VSMC, gene silencers vehicle lentivirus and plasmid; assay type: cell-based; conditions: Experiment 2; lentivirus vehicle for siRNA; FIG. 1
Method: (§3) Therefore, Experiment 2 was carried out with the following groups: lentivirus+gene silencer TNFRSF11B-siRNA, lentivirus+gene silencer NCF4-siRNA, full control (no vehicle and no drug), lentivirus+gene silencer SM22a-siRNA+glyceraldehyde 3-phosphate dehydrogenase (GAPDH) (vehicle control 1), lentivirus+gene silencer MYH11-siRNA+GAPDH (vehicle control 2), sirolimus (drug control 1), and paclitaxel (drug control 2).
(§4) TNFRSF11B-siRNA and NCF4-siRNA are gene silencers of the TNFRSF11B and NCF4 genes, respectively. The delivery system of gene silencers was developed by inserting the respective gene silencers in a plasmid which is carried by a lentivirus. Lentivirus particles are intracellular transduction-ready viruses containing plasmids with gene silencers. After transduction, cells express permanently gene silencers. The density of cell cultures 24 hours before transfection was 2×10^5 cells/10 cm2 in culture medium. […]
(§5) Two control groups containing a lentivirus and a gene silencer of smooth muscle protein 22α (SM22α) or smooth muscle myosin heavy chain (MYH11) were used to assess the vehicle. […] Thus, said two gene silencers, SM22α-siRNA and MYH11-siRNA, were marked with glyceraldehyde 3-phosphate dehydrogenase (GAPDH), called bioconjugates, to ensure by means of fluorescence microscopy that the gene silencers effectively entered VSMC and EC. […]

[3] = system: human vascular EC; assay: EC proliferation in bottles containing human EC, gene silencers vehicle lentivirus and plasmid; assay type: cell-based; conditions: Experiment 2; lentivirus vehicle for siRNA; FIG. 2
Method: as §3, §4, §5

[4] = system: human VSMC; assay: VSMC proliferation in bottles containing human VSMC, vehicle nanoparticles (DSPE-PEG); assay type: cell-based
Description: as §1, with “[…],” for “Experiment 5 was carried out by using nanoparticles of 1,”
as §2, with “microscopy. Finally, pure nanoparticles were used as a vehicle control, that is, with neither drug nor gene silencer.” for “microscopy.”

[5] = system: swine coronary arteries; assay: In vivo study in swine: stent deployment in the coronary arteries, intravascular ultrasound follow-up; parameters: species or system Large White swine
Description: Experiment 6 was an in vivo study in swine comparing MYH11-siRNA-eluting stent and CNN1-siRNA-eluting stent with bare metal stent and sirolimus-eluting stent.
Eighteen commercially available bare metal stents 2.75×15 mm were covered with MYH11-siRNA in nanoparticles (9 stents) or CNN1-siRNA in nanoparticles (9 stents) using a spray nozzle machine to create an abluminal cover in order to deliver the gene silencers locally in the inner surface of the vessel.
The hybrid lipid-polymer nanoparticles loaded with gene silencers (siRNA) were prepared by the nanoprecipitation method. The aqueous phase consisted of the gene silencer solubilized in 10 mL of water Milli Q under stirring and at a bath temperature of 30° C. The organic phase containing a lipid-cationic compound DSPE-PEG-NH2 (1,2-distearoyl-sn-glycero-3-phosphoethanolamine-N-[amino(polyethyleneglycol)-2000] and the PLGA polymer was then injected into the aqueous phase using a 20 G needle, the suspension being kept under moderate stirring for 5 minutes and then concentrated to a final volume of 10 mL in a rotatory evaporator to eliminate the organic solvent and adjust the final concentration. MYH11-siRNA and CNN1-siRNA concentrations ranging from 10 μg/ml to 100 μg/ml were tested.
After covering the abluminal surface of the 18 stents with MYH11-siRNA in nanoparticles (9 stents) or CNN1-siRNA in nanoparticles (9 stents), the stents were left to dry during 60 minutes, packaged in DuPont Tyvek™ and then sterilized with ethylene oxide (EtO) at 50 C.
Nine Large White swine were submitted to stent deployment in the coronary arteries, 1 stent being deployed in the left anterior descendent (LAD), 2 stents in the circumflex (CX) and 1 stent in the right coronary artery (RCA). The stents were deployed in a diameter ratio of 1.1 in relation to the coronary artery diameter, that is, with a mild oversize, in order to stimulate a similar inflammatory reaction that causes in-stent restenosis, to evaluate the efficacy of the gene silencers in controlling in-stent neointimal hyperplasia in a in vivo model. This oversized stent deployment protocol was previously validated (Lowe H C, Schwartz R S, Mac Neill B D, Jang I K, Hayase M, Rogers C, et al. The porcine coronary model of in-stent restenosis: Current status in the era of drug-eluting stents. Catheter Cardiovasclnterv. 2003:60:515-23.)
The prolonged time of stent re-endothelialization is the critical point of the current commercially available drug-eluting stents. So sirolimus and analogues as paclitaxel decrease the proliferation of vascular smooth muscle cells preventing in-stent neointimal hyperplasia, as well as suppress the proliferation of endothelial cells prolonging the time of stent re-endothelialization. […] Therefore, in order to evaluate the time of stent re-endothelialization, angiographic and intravascular ultrasound follow-up were scheduled at 30, 90 and 180 days after stent deployment.
The intravascular ultrasound analysis was performed tracing 31 frames for each stent with 0.5 mm apart each frame from the distal stent border to the proximal stent border. The data were analysed using one-way ANOVA with Bonferroni post hoc test.
The data of intravascular ultrasound in the index procedure as well as the results regarding in-stent neointimal proliferation at 30, 90 and 180 days after stent deployment are shown in table 1, while the comparative data of intravascular ultrasound regarding stent re-endothelialization at 30, 90 and 180 days after stent deployment are shown in table 2.

[6] = 180 days after stent deployment
[7] = intravascular ultrasound, follow-up (time not specified)

Structure (SMILES) | EC proliferation compared to the control group [1] | VSMC cell proliferation as compared to the full control group [2] | EC cell proliferation in relation to the full control group [3] | inhibition of VSMC proliferation in comparison with the control ([4]; Experiment 5, control nanoparticles only, FIG. 6) | Obstruction: average of percentual obstruction in the whole stent length ([5]; 30 days after stent deployment) | re-endothelialization (stent struts coverage) from intravascular ultrasound ([5]; 30 days after stent deployment) | Obstruction: average of percentual obstruction in the whole stent length ([5]; 90 days after stent deployment) | re-endothelialization (stent struts coverage) from intravascular ultrasound ([5]; 90 days after stent deployment) | Obstruction: average of percentual obstruction in the whole stent length [5, 6] | re-endothelialization (stent struts coverage) from intravascular ultrasound [5, 6] | LLL: late lumen loss ([5]; intravascular ultrasound, follow-up) | MLA (minimal luminal area) follow-up [5, 7] | MLD (minimal luminal diameter) follow-up [5, 7] | human VSMC proliferation ([4]; Experiment 7, FIG. 8)
CC(=O)O[C@H]1C(=O)[C@@]2(C)[C@H]([C@H](OC(=O)c3ccccc3)[C@]3(O)C[C@H](OC(=O)[C@H](O)[C@@H](NC(=O)c4ccccc4)c4ccccc4)C(C)=C1C3(C)C)[C@]1(OC(C)=O)CO[C@@H]1C[C@@H]2O [paclitaxel] | statistically significant inhibition | statistically significant inhibition | statistically significant inhibition | significant inhibition | – | – | – | – | – | – | – | – | – | –
CO[C@H]1C[C@@H]2CC[C@@H](C)[C@@](O)(O2)C(=O)C(=O)N2CCCC[C@H]2C(=O)O[C@H]([C@H](C)C[C@@H]2CC[C@@H](O)[C@H](OC)C2)CC(=O)[C@H](C)/C=C(\C)[C@@H](O)[C@@H](OC)C(=O)[C@H](C)C[C@H](C)/C=C/C=C/C=C/1C [sirolimus] | – | – | – | – | 11.4 ± 2.2% | 48 ± 3.3% | 12.3 ± 2.1% | 89 ± 3.8% | 13.8 ± 2.4% b | 100% | 0.33 ± 0.12 mm | 6.21 ± 0.16 mm^2 b | 2.68 ± 0.13 mm | 19%
